Measurements taken from patent publication US20230085307A1, “PYRIDAZINONE COMPOUND AND HERBICIDE” (NISSAN CHEMICAL CORPORATION, priority 2019, published 2023).

Experiments:
lambsquarters [1] = experiment: Test Example 4: herbicidal effect by soil treatment (Table 19, symbol O); type: in vivo, lambsquarters (Chenopodium album); settings: amount of applied herbicide 320 g/ha
How it was run: (§1)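 Pre-emergence style soil spray: seeds under ~1.5 cm sterilized diluvial soil received a uniform coat of emulsion diluted to the predetermined herbicide amount. Greenhouse 25–30° C; readout at week three on previously defined criteria.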

persian speedwell [2] = experiment: Test Example 4: herbicidal effect by soil treatment (Table 19, symbol R); type: in vivo, Persian speedwell (Veronica persica); settings: amount of applied herbicide 320 g/ha
How it was run: as §1

chickweed [3] = experiment: Test Example 5: herbicidal effect by foliage application, plastic box (Table 20, symbol P); type: in vivo, common chickweed (Stellaria media); settings: evaluated three weeks after application
How it was run: (§2)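 Plants were sown into sterilized diluvial soil under about 1.5 cm cover and kept in a greenhouse at 25° C. to 30° C. Fourteen days on, foliage received an even spray of the diluted emulsion. Herbicidal or crop effect was judged three weeks afterwards.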

redroot pigweed [4] = experiment: Test Example 4: herbicidal effect by soil treatment (Table 19, symbol N); type: in vivo, redroot pigweed (Amaranthus retroflexus); settings: amount of applied herbicide 320 g/ha
How it was run: as §1

lambsquarters [5] = experiment: Test Example 5: herbicidal effect by foliage application, plastic box (Table 20, symbol O); type: in vivo, lambsquarters (Chenopodium album); settings: evaluated three weeks after application
How it was run: as §2

velvetleaf [6] = experiment: Test Example 5: herbicidal effect by foliage application, plastic box (Table 20, symbol M); type: in vivo, velvetleaf (Abutilon theophrasti); settings: evaluated three weeks after application
How it was run: as §2

green foxtail [7] = experiment: Test Example 4: herbicidal effect by soil treatment (Table 19, symbol G); type: in vivo, green foxtail (Setaria viridis); settings: amount of applied herbicide 320 g/ha
How it was run: as §1

Italian ryegrass [8] = experiment: Test Example 5: herbicidal effect by foliage application, plastic box (Table 20, symbol K); type: in vivo, Italian ryegrass (Lolium multiflorum); settings: evaluated three weeks after application
How it was run: as §2

green foxtail [9] = experiment: Test Example 5: herbicidal effect by foliage application, plastic box (Table 20, symbol G); type: in vivo, green foxtail (Setaria viridis); settings: evaluated three weeks after application
How it was run: as §2

barnyard grass [10] = experiment: Test Example 5: herbicidal effect by foliage application, plastic box (Table 20, symbol H); type: in vivo, barnyard grass (Echinochloa crus-galli); settings: evaluated three weeks after application
How it was run: as §2

wild oat [11] = experiment: Test Example 5: herbicidal effect by foliage application, plastic box (Table 20, symbol I); type: in vivo, wild oat (Avena fatua); settings: evaluated three weeks after application
How it was run: as §2

barnyard grass [12] = experiment: Test Example 3: herbicidal effect by foliage application, Wagner pot (Table 18, symbol H); type: in vivo, barnyard grass (Echinochloa crus-galli)
How it was run: (§3)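 Plants were sown in alluvial soil held under 0.1–0.5 cm standing water and grown 14 days in a greenhouse at 25–30 °C. An emulsifiable formulation, water-diluted to the set dose, was then sprayed onto the foliage, and effects were scored three weeks later using previously defined criteria.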

chickweed [13] = experiment: Test Example 4: herbicidal effect by soil treatment (Table 19, symbol P); type: in vivo, common chickweed (Stellaria media); settings: amount of applied herbicide 320 g/ha
How it was run: as §1

southern crabgrass [14] = experiment: Test Example 5: herbicidal effect by foliage application, plastic box (Table 20, symbol F); type: in vivo, southern crabgrass (Digitaria ciliaris); settings: evaluated three weeks after application
How it was run: as §2

persian speedwell [15] = experiment: Test Example 5: herbicidal effect by foliage application, plastic box (Table 20, symbol R); type: in vivo, Persian speedwell (Veronica persica); settings: evaluated three weeks after application
How it was run: as §2

southern crabgrass [16] = experiment: Test Example 4: herbicidal effect by soil treatment (Table 19, symbol F); type: in vivo, southern crabgrass (Digitaria ciliaris); settings: amount of applied herbicide 320 g/ha
How it was run: as §1

Italian ryegrass [17] = experiment: Test Example 4: herbicidal effect by soil treatment (Table 19, symbol K); type: in vivo, Italian ryegrass (Lolium multiflorum); settings: amount of applied herbicide 320 g/ha
How it was run: as §1

velvetleaf [18] = experiment: Test Example 4: herbicidal effect by soil treatment (Table 19, symbol M); type: in vivo, velvetleaf (Abutilon theophrasti); settings: amount of applied herbicide 320 g/ha
How it was run: as §1

barnyard grass [19] = experiment: Test Example 4: herbicidal effect by soil treatment (Table 19, symbol H); type: in vivo, barnyard grass (Echinochloa crus-galli); settings: amount of applied herbicide 320 g/ha
How it was run: as §1

Chinese sprangletop = experiment: Test Example 3: herbicidal effect by foliage application, Wagner pot (Table 18, symbol D); type: in vivo, chinese sprangletop (Leptochloa chinensis)
How it was run: as §3

wild oat [20] = experiment: Test Example 4: herbicidal effect by soil treatment (Table 19, symbol I); type: in vivo, wild oat (Avena fatua); settings: amount of applied herbicide 320 g/ha
How it was run: as §1

windgrass [21] = experiment: Test Example 4: herbicidal effect by soil treatment (Table 19, symbol L); type: in vivo, windgrass (Apera spica-venti); settings: amount of applied herbicide 320 g/ha
How it was run: as §1

redroot pigweed [22] = experiment: Test Example 5: herbicidal effect by foliage application, plastic box (Table 20, symbol N); type: in vivo, redroot pigweed (Amaranthus retroflexus); settings: evaluated three weeks after application
How it was run: as §2

windgrass [23] = experiment: Test Example 5: herbicidal effect by foliage application, plastic box (Table 20, symbol L); type: in vivo, windgrass (Apera spica-venti); settings: evaluated three weeks after application
How it was run: as §2

blackgrass [24] = experiment: Test Example 5: herbicidal effect by foliage application, plastic box (Table 20, symbol J); type: in vivo, blackgrass (Alopecurus myosuroides); settings: evaluated three weeks after application
How it was run: as §2

rice flat sedge = experiment: Test Example 3: herbicidal effect by foliage application, Wagner pot (Table 18, symbol E); type: in vivo, rice flat sedge (Cyperus iria)
How it was run: as §3

blackgrass [25] = experiment: Test Example 4: herbicidal effect by soil treatment (Table 19, symbol J); type: in vivo, blackgrass (Alopecurus myosuroides); settings: amount of applied herbicide 320 g/ha
How it was run: as §1

[26] = amount of applied herbicide 320 g/ha
[27] = amount of applied herbicide 320 g/ha, foliage application after 14-day growth

SMILES: Cc1nn(C)c(=O)c(-c2c(-c3ccccc3C(F)(F)F)sc3ccc(F)cc23)c1O [2-229]
- herbicidal effect on O: lambsquarters (lambsquarters [1]): 3 (Herbicidal rate of 40% or more and less than 70%)
- herbicidal effect on R: persian speedwell (persian speedwell [2]): 0 (Herbicidal rate of 5% or less (almost no effect))
- herbicidal effect on P: chickweed (criteria 0-5) (chickweed [3]; foliage application, 320 g/ha): 5 (Herbicidal rate of 90% or more (almost completely withered))
- herbicidal effect on N: redroot pigweed (redroot pigweed [4]): 2 (Herbicidal rate of 20% or more and less than 40%)
- herbicidal effect on O: lambsquarters (criteria 0-5) (lambsquarters [5]; foliage application, 320 g/ha): 4 (Herbicidal rate of 70% or more and less than 90%)
- herbicidal effect on M: velvetleaf (criteria 0-5) (velvetleaf [6]; foliage application, 320 g/ha): 4 (Herbicidal rate of 70% or more and less than 90%)
- herbicidal effect on G: green foxtail (green foxtail [7]): 3 (Herbicidal rate of 40% or more and less than 70%)
- herbicidal effect on K: Italian ryegrass (criteria 0-5) (Italian ryegrass [8]; foliage application, 320 g/ha): 4 (Herbicidal rate of 70% or more and less than 90%)
- herbicidal effect on G: green foxtail (criteria 0-5) (green foxtail [9]; foliage application, 320 g/ha): 5 (Herbicidal rate of 90% or more (almost completely withered))
- herbicidal effect on H: barnyard grass (criteria 0-5) (barnyard grass [10]; foliage application, 320 g/ha): 3 (Herbicidal rate of 40% or more and less than 70%)
- herbicidal effect on I: wild oat (criteria 0-5) (wild oat [11]; foliage application, 320 g/ha): 1 (Herbicidal rate of 5% or more and less than 20%)
- herbicidal effect on H: barnyard grass (barnyard grass [12]; [26]): 4 (Herbicidal rate of 70% or more and less than 90%)
- herbicidal effect on P: chickweed (chickweed [13]): 1 (Herbicidal rate of 5% or more and less than 20%)
- herbicidal effect on F: southern crabgrass (criteria 0-5) (southern crabgrass [14]; foliage application, 320 g/ha): 3 (Herbicidal rate of 40% or more and less than 70%)
- herbicidal effect on R: persian speedwell (criteria 0-5) (persian speedwell [15]; foliage application, 320 g/ha): 5 (Herbicidal rate of 90% or more (almost completely withered))
- herbicidal effect on F: southern crabgrass (southern crabgrass [16]): 3 (Herbicidal rate of 40% or more and less than 70%)
- herbicidal effect on K: Italian ryegrass (Italian ryegrass [17]): 2 (Herbicidal rate of 20% or more and less than 40%)
- herbicidal effect on M: velvetleaf (velvetleaf [18]): 1 (Herbicidal rate of 5% or more and less than 20%)
- herbicidal effect on H: barnyard grass (barnyard grass [19]): 1 (Herbicidal rate of 5% or more and less than 20%)
- herbicidal effect on D: Chinese sprangletop (Chinese sprangletop; [26]): 3 (Herbicidal rate of 40% or more and less than 70%)
- herbicidal effect on I: wild oat (wild oat [20]): 0 (Herbicidal rate of 5% or less (almost no effect))
- herbicidal effect on L: windgrass (windgrass [21]): 0 (Herbicidal rate of 5% or less (almost no effect))
- herbicidal effect on N: redroot pigweed (criteria 0-5) (redroot pigweed [22]; foliage application, 320 g/ha): 4 (Herbicidal rate of 70% or more and less than 90%)
- herbicidal effect on L: windgrass (criteria 0-5) (windgrass [23]; foliage application, 320 g/ha): 4 (Herbicidal rate of 70% or more and less than 90%)
- herbicidal effect on J: blackgrass (criteria 0-5) (blackgrass [24]; foliage application, 320 g/ha): 3 (Herbicidal rate of 40% or more and less than 70%)
- herbicidal effect on E: rice flat sedge (rice flat sedge; [26]): 4 (Herbicidal rate of 70% or more and less than 90%)

SMILES: COc1cc(F)ccc1-c1sc2cc(F)c(F)cc2c1-c1c(O)c(C)nn(C)c1=O [5-029]
- O: lambsquarters, herbicidal effect grade (lambsquarters [1]): 5 (Herbicidal rate of 90% or more (almost completely withered))
- R: persian speedwell, herbicidal effect grade (persian speedwell [2]): 3 (Herbicidal rate of 40% or more and less than 70%)
- Herbicidal effect by foliage application, P: chickweed (chickweed [3]; [27]): 5 (Herbicidal rate of 90% or more (almost completely withered))
- N: redroot pigweed, herbicidal effect grade (redroot pigweed [4]): 5 (Herbicidal rate of 90% or more (almost completely withered))
- Herbicidal effect by foliage application, O: lambsquarters (lambsquarters [5]; [27]): 5 (Herbicidal rate of 90% or more (almost completely withered))
- Herbicidal effect by foliage application, M: velvetleaf (velvetleaf [6]; [27]): 5 (Herbicidal rate of 90% or more (almost completely withered))
- G: green foxtail, herbicidal effect grade (green foxtail [7]): 3 (Herbicidal rate of 40% or more and less than 70%)
- Herbicidal effect by foliage application, K: Italian ryegrass (Italian ryegrass [8]; [27]): 4 (Herbicidal rate of 70% or more and less than 90%)
- Herbicidal effect by foliage application, G: green foxtail (green foxtail [9]; [27]): 5 (Herbicidal rate of 90% or more (almost completely withered))
- J: blackgrass, herbicidal effect grade (blackgrass [25]): 4 (Herbicidal rate of 70% or more and less than 90%)
- Herbicidal effect by foliage application, H: barnyard grass (barnyard grass [10]; [27]): 5 (Herbicidal rate of 90% or more (almost completely withered))
- Herbicidal effect by foliage application, I: wild oat (wild oat [11]; [27]): 4 (Herbicidal rate of 70% or more and less than 90%)
- herbicidal effect on barnyard grass (H) (barnyard grass [12]; 320 g/ha): 4 (Herbicidal rate of 70% or more and less than 90%)
- P: chickweed, herbicidal effect grade (chickweed [13]): 3 (Herbicidal rate of 40% or more and less than 70%)
- Herbicidal effect by foliage application, F: southern crabgrass (southern crabgrass [14]; [27]): 3 (Herbicidal rate of 40% or more and less than 70%)
- Herbicidal effect by foliage application, R: persian speedwell (persian speedwell [15]; [27]): 5 (Herbicidal rate of 90% or more (almost completely withered))
- F: southern crabgrass, herbicidal effect grade (southern crabgrass [16]): 0 (Herbicidal rate of 5% or less (almost no effect))
- K: Italian ryegrass, herbicidal effect grade (Italian ryegrass [17]): 1 (Herbicidal rate of 5% or more and less than 20%)
- M: velvetleaf, herbicidal effect grade (velvetleaf [18]): 3 (Herbicidal rate of 40% or more and less than 70%)
- H: barnyard grass, herbicidal effect grade (barnyard grass [19]): 0 (Herbicidal rate of 5% or less (almost no effect))
- herbicidal effect on Chinese sprangletop (D) (Chinese sprangletop; 320 g/ha): 4 (Herbicidal rate of 70% or more and less than 90%)
- I: wild oat, herbicidal effect grade (wild oat [20]): 2 (Herbicidal rate of 20% or more and less than 40%)
- Herbicidal effect by foliage application, N: redroot pigweed (redroot pigweed [22]; [27]): 5 (Herbicidal rate of 90% or more (almost completely withered))
- Herbicidal effect by foliage application, L: windgrass (windgrass [23]; [27]): 5 (Herbicidal rate of 90% or more (almost completely withered))
- Herbicidal effect by foliage application, J: blackgrass (blackgrass [24]; [27]): 4 (Herbicidal rate of 70% or more and less than 90%)
- herbicidal effect on rice flat sedge (E) (rice flat sedge; 320 g/ha): 5 (Herbicidal rate of 90% or more (almost completely withered))
